According to patent publication US20110236506A1, “PHARMACEUTICAL ASSOCIATION CONTAINING LIPOIC ACID AND HYDROXYCITRIC ACID AS ACTIVE INGREDIENTS” (priority 2008, published 2011):

Assays:
[1] = test system: MBT-2 murine bladder tumors; test: Antitumor activity tests on C3H mice with implanted MBT-2 tumors; format: in vivo
Experimental: The compositions described hereinafter were tested against MBT-2 murine bladder tumors implanted in syngeneic C3H mice. These mice develop a tumor of 7 to 10 mm in diameter in approximately 20 days. The pharmaceutical combinations according to the invention and also the control compositions were administered intraperitoneally, for 21 days, starting from the 19th day after tumor inoculation. The change in tumor development was monitored by measuring the size of the tumors and monitoring the survival of the animals during the experiment.
The mice were randomized in groups of 18 individuals, the tumor of which is palpable (size of approximately 10 mm, after approximately 19 days of tumor development), according to the size of the tumor and the weight of the animals. For each animal, the maximum diameter of each tumor was measured with a Vernier caliper in order to determine the tumor volume. […]
The treatment with 5-FU (positive control) was administered intraperitoneally with a dose of 10 mg/kg once a day for 4 days. The mice treated with 5-FU were monitored in the same way as the other mice.
Every five days, the evolution of the tumor was monitored by various measurements: weight of the animals, tumor size (caliper rule), mortality. […]

[2] = test system: T-24 tumor cell line; test: Cell proliferation and viability test (MTT / number of cells), T-24 cell line; format: cell-based, human; details: molecule tested alone, relative to control culture
Experimental: The T-24 tumor cell line is a transitional bladder carcinoma isolated from a person (O'Toole C M. et al. 1983 Nature 301: 429-30).
(§1) The tumor cell lines were cultured in monolayer at 37° C. in a humidified atmosphere (5% CO2, 95% air). The culture medium which was used is DMEM Glutamax I (Invitrogen) for the two lines, supplemented with 10% of fetal calf serum (Eurobio) and 1/10 000 IU of penicillin and streptomycin. For carrying out the experiments, the human tumor cell lines were detached from the culture flask by treatment for 10 minutes with a solution of trypsin in Hanks medium without calcium or magnesium. The cells were counted in a hemocytometer and their viability was determined using the trypan blue exclusion test.
(§2) The tumor cell lines were amplified and then seeded into 96-well microplates (MTT) or 6-well plates (cell counts) at a concentration which allowed the cells to be in the proliferation phase for the 5 days of the culture. They were incubated for 48 hours before the beginning of the treatments in the microplates containing culture medium without the test substances or the reference substances.
During phase I (test with a single active ingredient), the tumor cell lines were incubated for 5 days at 37° C. under 5% CO2 with culture medium containing one of the test substances. Each experimental condition was reproduced six times. Generally, the flasks of culture medium supplemented with serum were first of all prepared with the highest concentration of each test molecule. Each other concentration to be tested was obtained by successive dilutions in the serum-supplemented culture medium. This step was adjusted according to the particular instability or sensitivity of each drug.
In phase II of the study (test with the combination of the two active ingredients), the same conditions for preparing the media and for culturing the cells were adhered to, and the active ingredients were combined and added simultaneously to the culture medium.
(§3) The tumor cell lines were incubated with 100 μl (96-well plates) or 2 ml (6-well plates) of serum-supplemented culture medium containing the test substances or the reference substance. The culture medium of each culture well (supplemented with the test molecule(s)) was renewed every two days during the treatment.
(§4) Starting from the first day of contact, and every two days after the beginning of the contacting of the culture media containing the test substances and the reference substances at the various concentrations tested, the proliferation and the cell viability of the cells were evaluated. The cell viability was evaluated in two different ways: • directly, under an optical microscope by statistical counting (number of cells), and • indirectly, by colorimetric assay based on the degradation of tetrazolium salts by mitochondrial dehydrogenases (MIT test). The optical densities (OD) of each well were then read with a microplate reader set at the appropriate wavelength.
(§5) For each active ingredient, each concentration tested and each combination, three cell viability values were measured and corrected, in particular by means of the calibration ranges for the optical reading instrument.
(§6) The mean of the three cell viability measurement values was then divided by the mean of the measurements of viability carried out in parallel in a control culture free of active ingredients.

[3] = test system: HT-29 tumor cell line; test: Cell proliferation and viability test (MTT / number of cells), HT-29 cell line; format: cell-based, human; details: molecule tested alone, relative to control culture
Experimental: The HT-29 tumor cell line was isolated in 1964 from a primary colonic adenocarcinoma in a person (Fogh J. et al. 1977 J. Nat. Cancer. Inst. 59: 221-6).
as §1, §2
During phase I (test with a single active ingredient), the tumor cell lines were incubated for 5 days at 37° C. under 5% CO2 with culture medium containing one of the test substances. Each experimental condition was reproduced six times. Generally, the flasks of culture medium supplemented with serum were first of all prepared with the highest concentration of each test molecule. Each other concentration to be tested was obtained by successive dilutions in the serum-supplemented culture medium. This step was adjusted according to the particular instability or sensitivity of each drug. […]
as §3, §4, §5, §6

[4] = test system: HT-29 and T-24 cell lines; test: Cell viability tests, observations stated jointly for the two cell lines; format: cell-based; details: human, 5 days, 4 μmol.l−1
Experimental: as §1, with “test. […]” for “test.”
as §4

O=c1[nH]cc(F)c(=O)[nH]1 [5-FU, 5-fluorouracil]
days of implantation after which 50% of the mice are still alive ([1]; FIG. 4B, groups of 18 mice): 39 days
increase in survival compared with the control mice ([1]; controls: 50% alive after 27 days): 12 days

O=C(O)CCCCC1CCSS1 (stereo not drawn) [Lipoic acid, alpha-lipoic acid]
Ratio of live T-24 cells after 72 hours, MTT ([2]; 0.1 μmol·l−1): 0.898
Ratio of live T-24 cells after 72 hours, Number of cells ([2]; 0.1 μmol·l−1): 0.940
Ratio of live T-24 cells after 72 hours, MTT ([2]; 1 μmol·l−1): 0.690
Ratio of live T-24 cells after 72 hours, Number of cells ([2]; 1 μmol·l−1): 0.772
Ratio of live T-24 cells after 72 hours, MTT ([2]; 10 μmol·l−1): 0.534
Ratio of live T-24 cells after 72 hours, Number of cells ([2]; 10 μmol·l−1): 0.601
Ratio of live HT-29 cells after 72 hours, MTT ([3]; 0.1 μmol·l−1): 0.807
Ratio of live HT-29 cells after 72 hours, Number of cells ([3]; 0.1 μmol·l−1): 0.853
Ratio of live HT-29 cells after 72 hours, MTT ([3]; 1 μmol·l−1): 0.55
Ratio of live HT-29 cells after 72 hours, Number of cells ([3]; 1 μmol·l−1): 0.583
Ratio of live HT-29 cells after 72 hours, MTT ([3]; 10 μmol·l−1): 0.452
Ratio of live HT-29 cells after 72 hours, Number of cells ([3]; 10 μmol·l−1): 0.441
cell mortality [4]: ≤ 50%

calcium hydroxycitrate
Ratio of live T-24 cells after 72 hours, MTT ([2]; 0.2 μmol·l−1): 0.725
Ratio of live T-24 cells after 72 hours, Number of cells ([2]; 0.2 μmol·l−1): 0.845
Ratio of live T-24 cells after 72 hours, MTT ([2]; 3 μmol·l−1): 0.488
Ratio of live T-24 cells after 72 hours, Number of cells ([2]; 3 μmol·l−1): 0.643
Ratio of live T-24 cells after 72 hours, MTT ([2]; 45 μmol·l−1): 0.359
Ratio of live T-24 cells after 72 hours, Number of cells ([2]; 45 μmol·l−1): 0.450
Ratio of live HT-29 cells after 72 hours, MTT ([3]; 10 μmol·l−1): 0.743
Ratio of live HT-29 cells after 72 hours, Number of cells ([3]; 10 μmol·l−1): 0.777
Ratio of live HT-29 cells after 72 hours, MTT ([3]; 100 μmol·l−1): 0.519
Ratio of live HT-29 cells after 72 hours, Number of cells ([3]; 100 μmol·l−1): 0.557
Ratio of live HT-29 cells after 72 hours, MTT ([3]; 500 μmol·l−1): 0.376
Ratio of live HT-29 cells after 72 hours, Number of cells ([3]; 500 μmol·l−1): 0.374
